“Also recorded” adds a separate entry of the source. Counter-ions that a name gives are not always drawn.
Legend:
mice [1] = assay: overall behavior and reactivities in mice; assay type: in vivo, mouse; conditions: mice, i.p.; dose not stated
Protocol: (§1) Groups of three animals are observed before and then 0.25 hour, 0.50 hour, 1 hour, 2 hours, 3 hours and 24 hours after the administration of CRL 41 224.

rats [2] = assay: overall behavior and reactivities in rats; assay type: in vivo, rat; conditions: i.p., dose not stated
Protocol: as §1

mice [3] = assay: interaction with apomorphine in mice; assay type: in vivo, mouse; conditions: i.p.; dose not stated
Protocol: Groups of 6 mice receive CRL 41 224 0.5 hour before the subcutaneous injection of 1 or 16 mg/kg of apomorphine.

rats [4] = assay: interaction with apomorphine in rats; assay type: in vivo, rat; conditions: i.p., dose not stated
Protocol: CRL 41 224 is administered to groups of 6 rats 0.5 hour before the subcutaneous injection of 0.5 mg/kg of apomorphine.

rats [5] = assay: interaction with amphetamine; assay type: in vivo, rat; conditions: rats, i.p.; dose not stated
Protocol: Amphetamine (2 mg/kg) is injected intraperitoneally into groups of 6 rats 30 minutes after the administration of CRL 41 224.

mice [6] = assay: interaction with reserpine; assay type: in vivo, mouse; conditions: i.p.; dose not stated
Protocol: Four hours after the intraperitoneal injection of 2.5 mg/kg of reserpine, groups of 6 mice receive CRL 41 224.

mice [7] = assay: interaction with oxotremorine; assay type: in vivo, mouse; conditions: i.p.; dose not stated
Protocol: CRL 41 224 is administered to groups of 6 mice 0.5 hour before the intraperitoneal injection of 0.5 mg/kg of oxotremorine.

mice [8] = assay: four plate test, traction and electric shock; assay type: in vivo, mouse; conditions: i.p., dose not stated
Protocol: The test is performed on groups of 10 mice 30 minutes after the administration of CRL 41 224.

mice [9] = assay: action on the spontaneous motility (actimeter); assay type: in vivo, mouse; conditions: mice, i.p.; dose not stated
Protocol: 0.5 hour after they have received CRL 41 224, the mice (6 per dose, 12 control animals) are placed in an actimeter, where their motility is recorded for 30 minutes.

mice [10] = assay: motility reduced by habituation to the enclosure; assay type: in vivo, mouse; conditions: i.p., dose not stated
Protocol: After they have stayed in the actimeters for 18 hours, the mice (6 per dose, 12 control animals) receive CRL 41 224. They are immediately returned to their respective enclosures and, half an hour later, their motility is recorded for 30 minutes.

mice [11] = assay: motility reduced by hypoxic aggression; assay type: in vivo, mouse; conditions: i.p., dose not stated
Protocol: Half an hour after they have received CRL 41 224, the mice (10 per dose, 20 control animals) are subjected to acute hypobaric anoxia [pressure reduction of 600 mm Hg (i.e. about 8×10^4 Pa) in 90 seconds; release of vacuum in 45 seconds] and are then placed in an actimeter, where their motility is recorded for 10 minutes.

mice [12] = assay: interaction with barbital; assay type: in vivo, mouse; conditions: i.p.; dose not stated
Protocol: Half an hour after the administration of CRL 41 224, groups of 10 mice receive an intraperitoneal injection of barbital (220 mg/kg).

mice [13] = assay: action on the behavioral despair; assay type: in vivo, mouse; conditions: i.p., dose not stated
From the text: Half an hour after they have received CRL 41 224, groups of 6 mice are placed in a beaker filled with water to a height of 6 cm. The total period of immobility between the 2nd and 6th minutes following immersion is noted.

CNS = assay: overall neuropsychopharmacological (CNS) profile; assay type: in vivo, mouse; rat; conditions: i.p., mice and rats, dose not stated
Protocol: The neuropsychopharmacological study of CRL 41 219 was carried out as indicated above for CRL 41 224.
The neuropsychopharmacological study of CRL 41 220 was carried out in accordance with the procedures given above for CRL 41 224.

[14] = tested on: peripheral α-adrenergic stimulation; assay: signs of peripheral adrenergic stimulation; assay type: in vivo, mouse; rat; conditions: i.p.; dose not stated
Protocol: as §1

rats [15] = assay: action on stereotypies in rats (α-methyltyrosine, haloperidol, reserpine); conditions: i.p.
male mice [16] = assay: acute toxicity, intraperitoneal (lethal doses); assay type: in vivo, mouse; conditions: i.p.
Protocol: By intraperitoneal administration to male mice, the LD-30 (lethal dose for 30% of the animals tested) is of the order of 128 mg/kg and the LD-50 is of the order of about 200 mg/kg.

male mice [17] = assay: influence of catecholamines on hyperactivity in mice; assay type: in vivo, mouse; conditions: I.V.C., 10 μg
Protocol: A further series of assays was carried out on mice according to the teaching of S. L. HANDLEY et al. "Influences of catecholamines on dexamphetamine, induced changes in locomotor activity", Psychopharmacology 58, 283-288 (1978), in order to observe a potential influence of dopamine or moradrenaline on the hyperactivity induced by CRL 41 152.
After a habituation period of 1.5 h to the actimeters, male mice (grouped into batches of 10 animals each and a control batch of 20 animals) were administered (under slight anesthesia with ether) per intraventriculocerebral injection (i.e. I.V.C. route) with (i) either 10 μg of noradrenaline, or 10 μg of dopamine or 10 μl (0.5 μl/second) of saline solution, then (ii) 5 minutes later, with CRL 41 152 (in solution in distilled water) per I.P. route in a volume of 20 ml/kg, immediately before replacing the mice in the actimeters vherein their motility was recorded for 1 hour by measuring the number of crossed rays per period of 5 minutes).
Batches receiving CRL 41 152 per I.P. route with noradreanaline or dopamine per I.V.C. route were compared with (i) the control batch receiving the saline solution per I.V.C. route then distilled water per I.P. route, and (ii) batches receiving only noradrenaline, dopamine (per I.V.C. route) or CRL 41 152 (per I.P. route).

dogs = assay: cardiovascular action in anesthetized dogs; assay type: in vivo, dog; conditions: control dogs
Protocol: Four dogs (average weight: 13.8 kg), anesthetized with nembutal, receive CRL 41 220 by intraduodenal administration at successive doses of 0.1 mg/kg, 0.5 mg/kg, 1 mg/kg, 2.5 mg/kg, 5 mg/kg and 10 mg/kg. The blood pressure, the heart beat, the flow rate through the femoral artery, the flow rate through the vertebral artery and the rectal and/or skin temperature are measured and the coloration of the skin and the bile (collected by catheterization of the bile duct after ligature of the cystic duct) is observed.

LEWIS' carcinoma = LEWIS' carcinoma in mice; assay type: in vivo, mouse; conditions: mice
Protocol: a. animals: consanguineous female mice (C57 BL6), b. infecting cells: 10^5 cells injected subcutaneously into the back of the animals, c. monitoring of the tumor growth by measurement of the tumor twice a week, d. evaluation of the pulmonary metastases after fixation of the lungs of the dead animals in BOUIN's fixative.
Using the same procedures, the association of CRL 41 220 with 150 mg/kg of cyclophosphamide gives the results collated in Table II below.

| Compound | excitation in mice (mice [1]) | hypothermia induced by apomorphine (mice [3]) | stereotypies induced by apomorphine (rats [4]) | stereotypies induced by amphetamine (rats [5]) | hypothermia induced by reserpine (mice [6]) | ptosis induced by reserpine (mice [6]) | hypothermia induced by oxotremorine (mice [7]) | spontaneous motility / motor activity (mice [9]) | motor activity after habituation to the enclosure (mice [10]) | motor recovery after hypoxic aggression (mice [11]) | period of immobility or "despair" (mice [13]) | mydriasis [14] | peripheral adrenergic stimulation, overall [14] | further results |
| --- | --- | --- | --- | --- | --- | --- | --- | --- | --- | --- | --- | --- | --- | --- |
| CC(=O)Nc1ccc(C(=O)C(C)NC(C)C)cc1Cl (stereo not drawn) [CRL 41 192, 1-(4-acetylamino-3-chlorophenyl)-2-isopropylaminopropanone hydrochloride] | excitation with hyperreactivity in mice | antagonism of the hypothermia induced by apomorphine | potentiation of the stereotypies induced by apomorphine | potentiation of the stereotypies induced by apomorphine or amphetamine | antagonism of the hypothermia induced by apomorphine, oxotremorine or reserpine | antagonism of the ptosis induced by reserpine | antagonism of the hypothermia induced by apomorphine, oxotremorine | an increase in the spontaneous motility in mice | a resumption in the motor activity of mice accustomed to their enclosure | an improvement in the motor recovery in mice after acute hypoxia | a reduction in the immobility | mydriasis | effects which may reflect peripheral adrenergic stimulation | stereotype movements in rats (rats [2]): stereotype movements in rats; trembling caused by oxotremorine (mice [7]): antagonism of the trembling caused by oxotremorine; convulsant effects of electric shock (mice [8]): anticonvulsant effects; sleep induced by barbital (mice [12]): antagonism of the sleep induced by barbital; overall action on the CNS (CNS; hydrochloride): stimulant effects; also recorded: antidepressant effects; exophthalmos [14]: absent; salivation [14]: absent; suppression of induced stereotype movements by prior injection of alpha-methyltyrosine (rats [15]): not suppressed |
| CC(=O)Nc1ccc(C(=O)C(C)N2CCOCC2)cc1 (stereo not drawn) [CRL 41 236] | excitation with hyperreactivity | antagonism of the hypothermia induced by apomorphine | potentiation of the stereotypies induced by apomorphine | potentiation of the stereotypies induced by apomorphine and amphetamine | antagonism of the hypothermia induced by apomorphine, reserpine | antagonism of the ptosis induced by reserpine | antagonism of the hypothermia induced by apomorphine, reserpine and oxotremorine | increase in the spontaneous motility | increase in the spontaneous motility and in the motor activity after habituation to the enclosure | improvement in the motor recovery after hypoxic aggression | reduction in the immobility | mydriasis | peripheral α-adrenergic stimulation | LD-0 (maximum non-lethal dose) (male mice [16]): greater than 256 mg/kg; LD-30 (male mice [16]): about 500 mg/kg; stereotype movements in mice (mice [1]): without the presence of stereotype movements; lethal effects of electric shock (mice [8]): seems to aggravate the lethal effects of electric shock; number of punished passes in the 4 plate test (mice [8]; mice): moderate increase in the number of punished passes; sleep induced by barbital (mice [12]): antagonism of the sleep induced by barbital; overall action on the CNS (CNS): behaves as an antidepressant having stimulant and arousing properties |
| NCCc1ccc(O)c(O)c1 [dopamine, reference compound] |  |  |  |  |  |  |  |  |  |  |  |  |  | locomotor effect by comparison with saline (male mice [17]): did not cause any visible locomotor effect |
| CC(C)NCC(O)c1ccc(O)c(O)c1 (stereo not drawn) [isoprenaline, reference compound] |  |  |  |  |  |  |  |  |  |  |  |  |  | heart beat with 10 μg/kg of isoprenaline, control animals (dogs; isoprenaline alone): 280 beats/minute |
| O=P1(N(CCCl)CCCl)NCCCO1 (stereo not drawn) [cyclophosphamide, reference compound] |  |  |  |  |  |  |  |  |  |  |  |  |  | development of tumors (LEWIS' carcinoma; 100 mg/kg): slightly slows down the development of tumors; number of pulmonary metastases (LEWIS' carcinoma; 100 mg/kg): reduces the number of pulmonary metastases; survival of the animals treated (LEWIS' carcinoma; 100 mg/kg): without however improving the survival of the animals treated; effect on process initiated by the administration of infecting cells (LEWIS' carcinoma; 150 mg/kg): distinctly opposes the process initiated by the administration of infecting cells; survival (LEWIS' carcinoma; 150 mg/kg): 2 out of 6 |
| NC[C@H](O)c1ccc(O)c(O)c1 [noradrenaline, reference compound] |  |  |  |  |  |  |  |  |  |  |  |  |  | systolic blood pressure with 2 μg/kg of noradrenaline, control animals (dogs; noradrenaline alone): 323 mm Hg; locomotor effect by comparison with saline (male mice [17]): did not cause any visible locomotor effect |
| CC(=O)Nc1ccc(C(=O)C(C)N(C)C)cc1 (stereo not drawn) [CRL 41 232] | excitation in mice | antagonism of the hypothermia induced by apomorphine | potentiation of the stereotypies induced by apomorphine | potentiation of the stereotypies induced by apomorphine and amphetamine | antagonism of the hypothermia induced by apomorphine, reserpine | antagonism of the ptosis induced by reserpine | antagonism of the hypothermia induced by apomorphine, reserpine and oxotremorine | increase in the motor activity | distinct resumption in the motor activity of mice accustomed to their enclosure | improvement in the motor recovery | reduction in the period of immobility | mydriasis | peripheral α-adrenergic stimulation | LD-0 (maximum non-lethal dose) (male mice [16]): greater than 128 mg/kg; LD-30 (male mice [16]): about 250 mg/kg; stereotype movements in mice (mice [1]): presence of stereotype movements in mice; stereotype movements in rats (rats [2]): presence of stereotype movements in mice and rats; overall action on the CNS (CNS): behaves overall as a stimulant and antidepressant for the CNS; exophthalmos [14]: exophthalmos |

Reference: patent publication US4963570A, “1-(acetylaminophenyl)-2-aminopropanone derivatives and pharmaceutical compositions thereof” (Laboratoire L. Lafon, priority 1983, dated 1990)
